Experimental data published in PMC5564600 (Oncotarget, 2017).

Columns and labels:
Experiment in all cases: biochemical
Type in all cases: binding
panel of 442 kinases [1] = biological target: T1, panel of 442 kinases (Homo sapiens, UniProt O00444); details: kinase PLK4; for remaining activity at 1 µM: read-out: PLK4 (% of control at 1 µM)
T1 construct: purchased Ambit Biosciences (scanMAXX KINOMEscan)
T1 sequence (O00444 1-970): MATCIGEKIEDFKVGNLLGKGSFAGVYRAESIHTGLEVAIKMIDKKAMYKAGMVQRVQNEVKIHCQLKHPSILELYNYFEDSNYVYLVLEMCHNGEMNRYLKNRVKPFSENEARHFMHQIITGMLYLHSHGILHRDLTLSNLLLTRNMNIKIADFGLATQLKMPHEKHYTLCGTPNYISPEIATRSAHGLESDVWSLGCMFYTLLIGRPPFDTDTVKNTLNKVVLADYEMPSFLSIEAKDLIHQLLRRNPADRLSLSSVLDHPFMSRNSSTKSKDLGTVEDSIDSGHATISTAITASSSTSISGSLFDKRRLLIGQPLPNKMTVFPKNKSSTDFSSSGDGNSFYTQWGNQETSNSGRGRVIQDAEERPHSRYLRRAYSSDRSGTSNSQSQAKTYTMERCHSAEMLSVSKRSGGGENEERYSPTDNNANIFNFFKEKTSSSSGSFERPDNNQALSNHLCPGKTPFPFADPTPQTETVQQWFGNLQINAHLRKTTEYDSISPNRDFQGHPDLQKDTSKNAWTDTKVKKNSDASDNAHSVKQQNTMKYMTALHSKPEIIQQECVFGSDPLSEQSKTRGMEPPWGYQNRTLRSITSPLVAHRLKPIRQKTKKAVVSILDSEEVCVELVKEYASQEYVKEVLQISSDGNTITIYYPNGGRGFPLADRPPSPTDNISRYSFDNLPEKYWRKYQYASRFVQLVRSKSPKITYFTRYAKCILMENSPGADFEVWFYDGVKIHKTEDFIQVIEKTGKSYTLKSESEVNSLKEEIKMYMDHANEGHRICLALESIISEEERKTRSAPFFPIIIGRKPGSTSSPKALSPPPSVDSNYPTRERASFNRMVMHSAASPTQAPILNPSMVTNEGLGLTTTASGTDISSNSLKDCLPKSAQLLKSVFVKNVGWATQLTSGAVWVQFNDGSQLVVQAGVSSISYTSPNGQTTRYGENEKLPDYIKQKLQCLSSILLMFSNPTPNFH

panel of 442 kinases [2] = biological target: T2, panel of 442 kinases (Homo sapiens, UniProt O15530); details: kinase PDPK1; for remaining activity at 1 µM: read-out: % of control at 1 µM
T2 construct: purchased Ambit Biosciences (scanMAXX KINOMEscan)
T2 sequence (O15530 1-556): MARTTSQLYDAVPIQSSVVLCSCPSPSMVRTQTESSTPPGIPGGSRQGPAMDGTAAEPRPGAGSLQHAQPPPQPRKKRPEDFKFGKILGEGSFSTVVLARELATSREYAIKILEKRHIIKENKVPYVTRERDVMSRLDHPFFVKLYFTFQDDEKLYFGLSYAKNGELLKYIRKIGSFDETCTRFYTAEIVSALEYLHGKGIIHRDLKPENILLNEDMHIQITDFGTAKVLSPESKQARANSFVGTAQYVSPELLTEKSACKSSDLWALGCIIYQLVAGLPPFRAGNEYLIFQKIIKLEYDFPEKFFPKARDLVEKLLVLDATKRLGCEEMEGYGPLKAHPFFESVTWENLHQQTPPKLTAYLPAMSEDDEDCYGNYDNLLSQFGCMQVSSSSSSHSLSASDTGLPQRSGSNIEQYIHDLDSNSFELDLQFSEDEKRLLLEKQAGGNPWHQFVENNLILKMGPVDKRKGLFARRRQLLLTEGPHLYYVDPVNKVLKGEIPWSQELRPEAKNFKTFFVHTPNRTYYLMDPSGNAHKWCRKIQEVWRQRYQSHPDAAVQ

panel of 442 kinases [3] = biological target: T3, panel of 442 kinases (Homo sapiens, UniProt P27448); details: kinase MARK3; for remaining activity at 1 µM: read-out: % of control at 1 µM
T3 construct: purchased Ambit Biosciences (scanMAXX KINOMEscan)
T3 sequence (P27448 whole entry): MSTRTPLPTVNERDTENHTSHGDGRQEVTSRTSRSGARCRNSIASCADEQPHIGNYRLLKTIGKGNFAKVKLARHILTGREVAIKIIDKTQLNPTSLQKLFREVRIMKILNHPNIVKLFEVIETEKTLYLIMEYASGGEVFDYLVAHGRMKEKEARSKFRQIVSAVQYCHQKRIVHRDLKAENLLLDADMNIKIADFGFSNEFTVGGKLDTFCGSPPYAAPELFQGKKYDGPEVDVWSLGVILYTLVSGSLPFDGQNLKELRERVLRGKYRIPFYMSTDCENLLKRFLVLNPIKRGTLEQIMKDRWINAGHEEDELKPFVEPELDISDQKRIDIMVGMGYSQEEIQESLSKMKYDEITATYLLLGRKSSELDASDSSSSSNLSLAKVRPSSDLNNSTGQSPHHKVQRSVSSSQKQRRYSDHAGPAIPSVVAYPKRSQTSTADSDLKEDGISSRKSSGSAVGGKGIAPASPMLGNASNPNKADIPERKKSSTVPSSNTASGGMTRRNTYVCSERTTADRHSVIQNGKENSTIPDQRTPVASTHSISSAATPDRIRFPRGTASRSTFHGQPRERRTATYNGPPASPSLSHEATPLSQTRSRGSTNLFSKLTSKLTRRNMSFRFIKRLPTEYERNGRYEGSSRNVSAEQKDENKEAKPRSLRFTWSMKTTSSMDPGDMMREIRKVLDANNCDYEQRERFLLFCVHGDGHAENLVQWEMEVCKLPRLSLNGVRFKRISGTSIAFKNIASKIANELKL

panel of 442 kinases [4] = biological target: T4, panel of 442 kinases (Homo sapiens, UniProt P35590); details: kinase TIE1; for remaining activity at 1 µM: read-out: TIE1 (% of control at 1 µM)
T4 construct: purchased Ambit Biosciences (scanMAXX KINOMEscan)
T4 sequence (P35590 22-1138): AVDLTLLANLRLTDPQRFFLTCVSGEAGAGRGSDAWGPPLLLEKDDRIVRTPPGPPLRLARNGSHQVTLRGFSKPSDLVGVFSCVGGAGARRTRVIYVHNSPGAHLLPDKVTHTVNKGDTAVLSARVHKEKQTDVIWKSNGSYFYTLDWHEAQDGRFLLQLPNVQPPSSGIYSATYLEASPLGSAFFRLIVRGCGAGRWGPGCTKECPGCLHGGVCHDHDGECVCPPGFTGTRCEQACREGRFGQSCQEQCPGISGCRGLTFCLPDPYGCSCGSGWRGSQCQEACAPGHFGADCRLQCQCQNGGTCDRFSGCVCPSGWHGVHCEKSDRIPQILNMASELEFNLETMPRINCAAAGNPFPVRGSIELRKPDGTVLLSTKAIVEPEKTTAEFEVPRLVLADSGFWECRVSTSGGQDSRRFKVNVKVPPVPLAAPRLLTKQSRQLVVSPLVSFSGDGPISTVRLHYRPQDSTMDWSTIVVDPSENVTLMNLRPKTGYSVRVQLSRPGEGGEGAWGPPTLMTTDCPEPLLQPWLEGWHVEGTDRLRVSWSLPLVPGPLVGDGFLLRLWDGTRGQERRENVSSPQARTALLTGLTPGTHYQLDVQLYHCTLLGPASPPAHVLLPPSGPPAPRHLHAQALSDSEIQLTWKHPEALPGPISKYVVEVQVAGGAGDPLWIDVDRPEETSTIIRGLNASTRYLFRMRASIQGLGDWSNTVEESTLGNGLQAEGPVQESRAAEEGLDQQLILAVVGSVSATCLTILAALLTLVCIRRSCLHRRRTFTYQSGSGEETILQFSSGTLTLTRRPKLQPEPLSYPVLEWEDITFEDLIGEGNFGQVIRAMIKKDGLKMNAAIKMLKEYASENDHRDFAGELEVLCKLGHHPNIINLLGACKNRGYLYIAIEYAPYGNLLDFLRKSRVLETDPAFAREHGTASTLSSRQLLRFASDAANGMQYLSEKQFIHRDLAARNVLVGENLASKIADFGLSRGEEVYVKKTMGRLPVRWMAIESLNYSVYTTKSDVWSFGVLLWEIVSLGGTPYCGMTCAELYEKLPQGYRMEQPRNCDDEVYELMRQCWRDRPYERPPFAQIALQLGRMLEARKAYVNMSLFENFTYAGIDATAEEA

panel of 442 kinases [5] = biological target: T5, panel of 442 kinases (Homo sapiens, UniProt P45985); details: kinase MEK4; for remaining activity at 1 µM: read-out: % of control at 1 µM
T5 construct: purchased Ambit Biosciences (scanMAXX KINOMEscan)
T5 sequence (P45985 1-399): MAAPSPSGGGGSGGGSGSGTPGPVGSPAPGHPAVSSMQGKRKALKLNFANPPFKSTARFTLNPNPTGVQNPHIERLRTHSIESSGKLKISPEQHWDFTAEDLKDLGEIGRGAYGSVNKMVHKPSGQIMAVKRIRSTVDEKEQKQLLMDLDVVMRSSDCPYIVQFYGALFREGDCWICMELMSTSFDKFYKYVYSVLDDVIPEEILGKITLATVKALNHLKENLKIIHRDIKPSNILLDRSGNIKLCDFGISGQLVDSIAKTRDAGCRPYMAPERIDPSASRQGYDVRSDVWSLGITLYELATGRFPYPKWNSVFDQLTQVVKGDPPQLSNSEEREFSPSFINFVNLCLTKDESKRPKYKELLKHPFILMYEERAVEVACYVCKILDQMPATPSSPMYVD

panel of 442 kinases [6] = biological target: T6, panel of 442 kinases (Homo sapiens, UniProt Q00532); details: CDKL1; for remaining activity at 1 µM: read-out: % of control at 1 µM
T6 construct: purchased Ambit Biosciences (scanMAXX KINOMEscan)
T6 sequence (Q00532 whole entry): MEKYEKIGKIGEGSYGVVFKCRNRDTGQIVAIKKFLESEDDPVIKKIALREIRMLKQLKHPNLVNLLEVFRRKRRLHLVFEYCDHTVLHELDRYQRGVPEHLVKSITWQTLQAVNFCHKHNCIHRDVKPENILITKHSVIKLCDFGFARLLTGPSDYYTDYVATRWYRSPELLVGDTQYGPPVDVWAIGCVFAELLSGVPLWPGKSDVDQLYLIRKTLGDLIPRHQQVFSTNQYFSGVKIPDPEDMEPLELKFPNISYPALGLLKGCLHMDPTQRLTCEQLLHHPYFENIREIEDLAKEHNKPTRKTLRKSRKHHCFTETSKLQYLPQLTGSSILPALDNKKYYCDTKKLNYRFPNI

panel of 442 kinases [7] = biological target: T7, panel of 442 kinases (Homo sapiens, UniProt Q99640); details: kinase PKMYT1; for remaining activity at 1 µM: read-out: PKMYT1 (% of control at 1 µM)
T7 construct: purchased Ambit Biosciences (scanMAXX KINOMEscan)
T7 sequence (Q99640 1-499): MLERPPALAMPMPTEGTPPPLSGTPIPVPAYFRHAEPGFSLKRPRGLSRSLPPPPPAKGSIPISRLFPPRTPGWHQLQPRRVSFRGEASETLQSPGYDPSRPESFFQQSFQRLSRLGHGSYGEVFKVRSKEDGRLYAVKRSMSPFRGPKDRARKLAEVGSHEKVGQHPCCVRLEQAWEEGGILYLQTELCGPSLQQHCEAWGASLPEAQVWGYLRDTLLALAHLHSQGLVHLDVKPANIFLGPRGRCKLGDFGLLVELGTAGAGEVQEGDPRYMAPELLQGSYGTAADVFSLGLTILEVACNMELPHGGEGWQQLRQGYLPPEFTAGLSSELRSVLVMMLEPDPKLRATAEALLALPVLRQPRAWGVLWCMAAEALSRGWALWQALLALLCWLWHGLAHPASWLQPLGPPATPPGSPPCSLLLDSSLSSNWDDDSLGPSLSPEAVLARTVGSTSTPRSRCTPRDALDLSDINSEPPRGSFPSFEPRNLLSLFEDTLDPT

panel of 442 kinases [8] = biological target: T8, panel of 442 kinases (Homo sapiens, UniProt Q9Y2H9); details: kinase MAST1; for remaining activity at 1 µM: read-out: % of control at 1 µM
T8 construct: purchased Ambit Biosciences (scanMAXX KINOMEscan)
T8 sequence (Q9Y2H9 whole entry): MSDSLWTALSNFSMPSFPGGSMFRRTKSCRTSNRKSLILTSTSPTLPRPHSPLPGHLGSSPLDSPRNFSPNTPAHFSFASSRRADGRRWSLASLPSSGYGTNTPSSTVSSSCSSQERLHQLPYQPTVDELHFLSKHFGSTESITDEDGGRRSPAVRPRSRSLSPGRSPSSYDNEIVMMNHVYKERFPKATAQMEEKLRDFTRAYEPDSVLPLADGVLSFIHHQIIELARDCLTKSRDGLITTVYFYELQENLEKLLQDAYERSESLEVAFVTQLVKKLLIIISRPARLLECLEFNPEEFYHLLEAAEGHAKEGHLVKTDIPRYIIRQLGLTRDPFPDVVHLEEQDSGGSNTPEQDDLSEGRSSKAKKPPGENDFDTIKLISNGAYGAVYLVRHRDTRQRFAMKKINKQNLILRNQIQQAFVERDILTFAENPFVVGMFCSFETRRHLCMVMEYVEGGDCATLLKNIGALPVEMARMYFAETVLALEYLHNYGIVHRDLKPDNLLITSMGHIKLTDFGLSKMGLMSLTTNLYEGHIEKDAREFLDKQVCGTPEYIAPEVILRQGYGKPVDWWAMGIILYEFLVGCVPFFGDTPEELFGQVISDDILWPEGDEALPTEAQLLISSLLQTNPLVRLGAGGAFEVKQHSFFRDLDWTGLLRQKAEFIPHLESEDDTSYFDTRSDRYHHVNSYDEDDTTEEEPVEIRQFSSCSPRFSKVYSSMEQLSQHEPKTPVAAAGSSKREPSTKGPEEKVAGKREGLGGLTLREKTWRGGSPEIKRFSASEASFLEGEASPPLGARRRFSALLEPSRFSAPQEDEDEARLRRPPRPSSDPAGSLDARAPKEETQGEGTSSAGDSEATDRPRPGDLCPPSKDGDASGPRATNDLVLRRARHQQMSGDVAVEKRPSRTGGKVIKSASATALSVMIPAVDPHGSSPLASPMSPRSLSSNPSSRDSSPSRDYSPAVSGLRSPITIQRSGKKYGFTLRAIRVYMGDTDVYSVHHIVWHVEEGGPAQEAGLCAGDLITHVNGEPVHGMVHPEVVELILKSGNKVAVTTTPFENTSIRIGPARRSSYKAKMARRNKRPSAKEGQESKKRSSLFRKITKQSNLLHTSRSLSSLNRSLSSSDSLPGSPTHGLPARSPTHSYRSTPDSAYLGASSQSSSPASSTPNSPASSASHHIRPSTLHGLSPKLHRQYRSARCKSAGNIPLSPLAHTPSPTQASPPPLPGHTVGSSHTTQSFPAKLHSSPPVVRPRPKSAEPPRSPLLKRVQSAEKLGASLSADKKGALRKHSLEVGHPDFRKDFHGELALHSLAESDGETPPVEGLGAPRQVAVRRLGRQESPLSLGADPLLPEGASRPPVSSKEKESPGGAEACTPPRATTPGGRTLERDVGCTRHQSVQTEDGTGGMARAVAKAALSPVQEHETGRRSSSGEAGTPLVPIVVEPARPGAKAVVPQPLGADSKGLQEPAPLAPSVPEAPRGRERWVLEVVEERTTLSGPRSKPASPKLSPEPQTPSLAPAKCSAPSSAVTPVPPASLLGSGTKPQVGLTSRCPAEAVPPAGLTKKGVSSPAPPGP

[9] = 10 µM, read-out: % of control at 10 µM

Compound | remaining activity at 1 µM (panel of 442 kinases [1]) | remaining activity at 10 µM (panel of 442 kinases [1]; 10 µM, read-out: PLK4 (% of control at 10 µM)) | remaining activity at 1 µM (panel of 442 kinases [2]) | remaining activity at 10 µM (panel of 442 kinases [2]; [9]) | remaining activity at 1 µM (panel of 442 kinases [3]) | remaining activity at 10 µM (panel of 442 kinases [3]; [9]) | remaining activity at 1 µM (panel of 442 kinases [4]) | remaining activity at 10 µM (panel of 442 kinases [4]; 10 µM, read-out: TIE1 (% of control at 10 µM)) | remaining activity at 1 µM (panel of 442 kinases [5]) | remaining activity at 10 µM (panel of 442 kinases [5]; [9]) | remaining activity at 1 µM (panel of 442 kinases [6]) | remaining activity at 10 µM (panel of 442 kinases [6]; [9]) | remaining activity at 1 µM (panel of 442 kinases [7]) | remaining activity at 10 µM (panel of 442 kinases [7]; 10 µM, read-out: PKMYT1 (% of control at 10 µM)) | remaining activity at 1 µM (panel of 442 kinases [8]) | remaining activity at 10 µM (panel of 442 kinases [8]; [9])
Nc1cc(C(F)(F)F)c(-c2cc(N3CCOCC3)nc(N3CCOCC3)n2)cn1 [Buparlisib] | 93% | 87% | 89% | 100% | 97% | 100% | 96% | 100% | 100% | 100% | 100% | 100% | 100% | 100% | 53% | 73%
Cn1c(=O)n(-c2ccc(C(C)(C)C#N)cc2)c2c3cc(-c4cnc5ccccc5c4)ccc3ncc21 [Dactolisib, 2-methyl-2-[4-(3-methyl-2-oxo-8-quinolin-3-yl-2,3-dihydroimidazo[4,5-c]quinolin-1-yl)-phenyl] propionitrile] | 94% | – | 90% | – | 100% | – | 100% | – | 83% | – | 100% | – | 75% | – | 100% | –
COc1ncc(-c2ccc3nccc(-c4ccnnc4)c3c2)cc1NS(=O)(=O)c1ccc(F)cc1F [Omipalisib] | 61% | – | 96% | – | 100% | – | 100% | – | 48% | – | 100% | – | 81% | – | 100% | –
FC(F)c1nc2ccccc2n1-c1nc(N2CCOCC2)nc(N2CCOCC2)n1 [ZSTK474, 2-(difluoromethyl)-1-[4,6-di(4-morpholinyl)-1,3,5-triazin-2-yl]-1H-benzimidazole] | 84% | – | 100% | – | 100% | – | 88% | – | 63% | – | 100% | – | 72% | – | 100% | –
